Reference: the supplement of paper PMC11451515

Tested on: NOMO1
Assay: cell viability relative to DMSO control; higher = less cytotoxic
Conditions: 48 h
Method in brief: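 Viability was expressed as a per-plate percentage of DMSO wells, with cell-free wells as background. Leukemia cells (NOMO1 or SEM at 500 cells/well, P12-Ichikawa at 1000 cells/well) were adapted for at least four passages in each medium and seeded in 1536-well plates (5 μl). Library compounds in DMSO were pin-dosed over an 11-point threefold series from 47 μM to 0.79 nM, and CellTiter-Glo One luminescence was read after 48 h at 37°C.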

[1] = HPLM + 10% dialyzed FBS, 0.000781 µM
[2] = HPLM + 10% dialyzed FBS, 0.00234 µM
[3] = HPLM + 10% dialyzed FBS, 0.00702 µM
[4] = HPLM + 10% dialyzed FBS, 0.0211 µM
[5] = HPLM + 10% dialyzed FBS, 0.0632 µM
[6] = HPLM + 10% dialyzed FBS, 0.19 µM
[7] = HPLM + 10% dialyzed FBS, 0.569 µM
[8] = HPLM + 10% dialyzed FBS, 1.71 µM
[9] = HPLM + 10% dialyzed FBS, 5.12 µM
[10] = HPLM + 10% dialyzed FBS, 15.4 µM
[11] = HPLM + 10% dialyzed FBS, 46.1 µM
[12] = RPMI 5 mM glucose + 10% FBS, 0.000781 µM
[13] = RPMI 5 mM glucose + 10% FBS, 0.00234 µM
[14] = RPMI 5 mM glucose + 10% FBS, 0.00702 µM
[15] = RPMI 5 mM glucose + 10% FBS, 0.0211 µM
[16] = RPMI 5 mM glucose + 10% FBS, 0.0632 µM
[17] = RPMI 5 mM glucose + 10% FBS, 0.19 µM
[18] = RPMI 5 mM glucose + 10% FBS, 0.569 µM
[19] = RPMI 5 mM glucose + 10% FBS, 1.71 µM
[20] = RPMI 5 mM glucose + 10% FBS, 5.12 µM
[21] = RPMI 5 mM glucose + 10% FBS, 15.4 µM
[22] = RPMI 5 mM glucose + 10% FBS, 46.1 µM
[23] = RPMI 5 mM glucose + 10% dialyzed FBS, 0.000781 µM
[24] = RPMI 5 mM glucose + 10% dialyzed FBS, 0.00234 µM
[25] = RPMI 5 mM glucose + 10% dialyzed FBS, 0.00702 µM
[26] = RPMI 5 mM glucose + 10% dialyzed FBS, 0.0211 µM
[27] = RPMI 5 mM glucose + 10% dialyzed FBS, 0.0632 µM
[28] = RPMI 5 mM glucose + 10% dialyzed FBS, 0.19 µM
[29] = RPMI 5 mM glucose + 10% dialyzed FBS, 0.569 µM
[30] = RPMI 5 mM glucose + 10% dialyzed FBS, 1.71 µM
[31] = RPMI 5 mM glucose + 10% dialyzed FBS, 5.12 µM
[32] = RPMI 5 mM glucose + 10% dialyzed FBS, 15.4 µM
[33] = RPMI 5 mM glucose + 10% dialyzed FBS, 46.1 µM

SMILES | cell viability [1] | cell viability [2] | cell viability [3] | cell viability [4] | cell viability [5] | cell viability [6] | cell viability [7] | cell viability [8] | cell viability [9] | cell viability [10] | cell viability [11] | cell viability [12] | cell viability [13] | cell viability [14] | cell viability [15] | cell viability [16] | cell viability [17] | cell viability [18] | cell viability [19] | cell viability [20] | cell viability [21] | cell viability [22] | cell viability [23] | cell viability [24] | cell viability [25] | cell viability [26] | cell viability [27] | cell viability [28] | cell viability [29] | cell viability [30] | cell viability [31] | cell viability [32] | cell viability [33]
O=c1[nH]c2ccccc2n1C1CCN(Cc2ccc(-c3nc4cc5nc[nH]c5cc4nc3-c3ccccc3)cc2)CC1 | 95.9% | 126% | 114% | 126% | 133% | 130% | 108% | 97% | 90.7% | 103% | 95.9% | 101% | 119% | 108% | 113% | 123% | 113% | 115% | 107% | 111% | 121% | 118% | 98.8% | 104% | 109% | 105% | 116% | 116% | 103% | 107% | 97.9% | 115% | 102%
NC(=O)c1ccc(I)c([N+](=O)[O-])c1 | 130% | 123% | 110% | 138% | 126% | 140% | 128% | 117% | 126% | 124% | 117% | 125% | 125% | 120% | 131% | 119% | 125% | 126% | 140% | 133% | 120% | 118% | 123% | 120% | 137% | 143% | 148% | 132% | 148% | 139% | 143% | 158% | 130%
Cc1cnc(NC(=O)Nc2cc(Br)c(C)cc2OC[C@@H]2CNCCO2)cn1 | 122% | 130% | 107% | 127% | 130% | 120% | 95.1% | 69.5% | 30.9% | 35.5% | 26.6% | 108% | 120% | 107% | 107% | 119% | 117% | 101% | 99% | 51% | 94.2% | 22.5% | 111% | 106% | 109% | 116% | 121% | 108% | 110% | 68.1% | 23.1% | 32.8% | 17.9%
OC1CCC(Nc2ncc3nc(Nc4c(F)cc(F)cc4F)n([C@@H]4CCOC4)c3n2)CC1 (stereo partly specified) | 112% | 119% | 131% | 143% | 126% | 142% | 143% | 134% | 141% | 131% | 128% | 106% | 113% | 108% | 113% | 107% | 118% | 105% | 110% | 125% | 115% | 121% | 102% | 119% | 115% | 119% | 114% | 128% | 122% | 125% | 135% | 131% | 126%
C[C@]12CCC(=O)C=C1CC[C@@H]1[C@@H]2CC[C@@]2(C)[C@H]1CC[C@]2(C)O | 109% | 116% | 115% | 85.3% | 110% | 102% | 108% | 102% | 99.1% | 96.5% | 90.2% | 85.1% | 89.6% | 88.9% | 97.2% | 86% | 96.5% | 91.1% | 86.8% | 98.7% | 87.7% | 83.4% | 107% | 93.8% | 96.1% | 86.5% | 105% | 93.1% | 91.6% | 98.1% | 90.9% | 91.6% | 90.7%
Cn1c(CNc2ccc(C(=N)N)cc2)nc2cc(C(=O)N(CCC(=O)O)c3ccccn3)ccc21 | 109% | 106% | 103% | 109% | 103% | 95.5% | 116% | 119% | 125% | 124% | 111% | 92% | 92.8% | 94.6% | 95.5% | 99.3% | 98.7% | 97.7% | 109% | 97.3% | 103% | 111% | 94.5% | 91.3% | 95.9% | 93.8% | 113% | 99.6% | 94% | 104% | 96% | 110% | 116%
CC(C)(C)c1[nH]cnc1/C=c1\[nH]c(=O)/c(=C/c2ccccc2)[nH]c1=O | 101% | 76.7% | 31% | 46% | 52.7% | 37.5% | 42.1% | 32.5% | 20.3% | 22.1% | 5.6% | 128% | 109% | 24.3% | 24.5% | 28.9% | 23.9% | 24.9% | 17.4% | 18.4% | 14.6% | 6.53% | 103% | 105% | 24.9% | 26.2% | 29.5% | 27.8% | 30.6% | 20.8% | 23.2% | 16.5% | 3.92%
COc1cc(OC)c(/C=C/[S+](=O)([O-])Cc2ccc(OC)c(NCC(=O)[O][Na])c2)c(OC)c1 | 120% | 113% | 119% | 118% | 126% | 60.3% | 43.7% | 47.7% | 44% | 42.5% | 34.4% | 110% | 104% | 102% | 121% | 109% | 99.6% | 27.6% | 23.9% | 27% | 26.7% | 24.9% | 111% | 128% | 111% | 117% | 122% | 37.5% | 31.7% | 26.1% | 26.2% | 23.6% | 24.1%
FC(F)c1nc2ccccc2n1-c1nc(N2CCOCC2)nc(N2CCOCC2)n1 | 104% | 93.8% | 92% | 60.1% | 65.3% | 42.6% | 43.9% | 36.3% | 41.5% | 27.7% | 30.6% | 85.4% | 92.2% | 87.9% | 94.5% | 78% | 67.8% | 52.6% | 62.8% | 45.7% | 60.2% | 31.2% | 86.5% | 102% | 97.1% | 97.5% | 76.5% | 71% | 54.7% | 52.9% | 50.2% | 43.9% | 34.4%
C[C@]12CC[C@@H]3c4ccc(O)cc4C[C@@H](CCCCCCCCC[S+]([O-])CCCC(F)(F)C(F)(F)F)[C@H]3[C@@H]1CC[C@@H]2O (stereo partly specified) | – | – | – | – | – | – | – | – | – | – | – | 103% | 118% | 104% | 131% | 121% | 113% | 107% | 104% | 115% | 118% | 104% | – | – | – | – | – | – | – | – | – | – | –
COC1=CC=C(C=C1)C/2=C/OC3=C(C(=CC(=C3)O)O)C2=O | 111% | 124% | 133% | 114% | 130% | 123% | 133% | 122% | 116% | 114% | 60.5% | – | – | – | – | – | – | – | – | – | – | – | 111% | 116% | 120% | 130% | 156% | 144% | 144% | 140% | 140% | 143% | 106%
COc1ccc(-c2nc(N3CCOCC3)c3sc(CN(C)c4ncc(C(=O)NO)cn4)cc3n2)cn1 | 109% | 132% | 86.2% | 62.8% | 12.6% | 8.22% | 7.83% | 8.13% | 7.89% | 7.72% | 6.31% | 110% | 112% | 100% | 65.4% | 14.2% | 8.1% | 8.11% | 8.29% | 7.05% | 7.28% | 6.26% | 117% | 132% | 104% | 73.7% | 22.8% | 7.51% | 7.58% | 7.17% | 6.72% | 6.98% | 6.02%
N[C@H](CSC(c1ccccc1)(c1ccccc1)c1ccccc1)C(=O)O | 108% | 114% | 133% | 135% | 116% | 108% | 115% | 125% | 120% | 129% | 99.6% | 121% | 113% | 126% | 131% | 123% | 118% | 138% | 139% | 114% | 115% | 106% | 106% | 116% | 117% | 129% | 131% | 127% | 134% | 126% | 108% | 109% | 116%
C[C@@H]1[C@H](O)[C@@H](C)/C=C/C=C/C=C/C=C/C=C/C=C/C=C/[C@H](O[C@@H]2O[C@H](C)[C@@H](O)[C@H](N)[C@@H]2O)C[C@@H]2O[C@](O)(C[C@@H](O)C[C@@H](O)[C@H](O)CC[C@@H](O)C[C@@H](O)CC(=O)O[C@H]1C)C[C@H](O)[C@H]2C(=O)O | 113% | 121% | 126% | 117% | 114% | 116% | 124% | 123% | 152% | 138% | 133% | 108% | 124% | 112% | 114% | 111% | 115% | 133% | 119% | 125% | 118% | 135% | – | – | – | – | – | – | – | – | – | – | –
COc1ncc(-c2ccc3nccc(-c4ccnnc4)c3c2)cc1N[S+](=O)([O-])c1ccc(F)cc1F | 95.5% | 81.2% | 76.8% | 89.6% | 75.1% | 66.3% | 60.5% | 45.8% | 41.7% | 31.9% | 29.7% | 121% | 96.1% | 92.3% | 79.8% | 76% | 72.8% | 69.7% | 43.1% | 29.9% | 27.8% | 21% | 104% | 92.1% | 86.2% | 76.6% | 72.9% | 62.6% | 64% | 44.7% | 38.1% | 29.7% | 19.9%
